# Measured values: BindingDB's records for doi:10.1016/j.ejmech.2018.07.023 (University of Copenhagen, 2018)
# *1 amine or outer side, *2 acyl side, *3 side chain or, on linkers, in order; H or OH if unused. Where a SMILES comes first, the peptide text is derived from it. Bridges are numbered along the chain shown (N, C = ends). [ ]: non-standard residue; d: D form. Leu(3R-O(AcLeu(3R-OH))) = CC(=O)N[C@H](C(=O)O[C@H](C(C)C)[C@H](N)C(=O)O)[C@H](O)C(C)C; X1 = CC(C)[C@@H](O[*:3])[C@H](N[*:1])C(=O)[*:2]; NMeT = CN[C@H](C(=O)O)[C@@H](C)O; dPhLac = O=C(O)[C@H](O)Cc1ccccc1; NMeA = CN[C@@H](C)C(=O)O; NMeDha = C=C(NC)C(=O)O
# Experiment: Inhibition of recombinant rat Gi coupled mGlu2 receptor expressed in CHO cells assessed as suppression of L-glutamate-induced decrease in cAMP level pretreated for 1 hr followed by L-glutamate/forskolin addition and measured after 30 mins by FRET assay
row,IC50 [µM],SMILES
1,> 100,C=C1C(=O)N[C@@H](C)C(=O)N(C)[C@@H](C)C(=O)N[C@@H]([C@H](OC(=O)[C@@H](NC(C)=O)[C@H](O)C(C)C)C(C)C)C(=O)N(C)[C@@H]([C@@H](C)OC)C(=O)O[C@H](C)[C@H](NC(C)=O)C(=O)O[C@H](CC(C)C)C(=O)N1C
2,> 50,C=C1C(=O)N[C@@H](C)C(=O)N(C)[C@@H](C)C(=O)N[C@@H]([C@H](OC(=O)[C@@H](NC(=O)CCCCC)[C@H](O)C(C)C)C(C)C)C(=O)N(C)[C@@H]([C@@H](C)OC)C(=O)O[C@H](C)[C@H](NC(C)=O)C(=O)O[C@H](Cc2ccccc2)C(=O)N1C
3,> 50,C=C1C(=O)N[C@@H](C)C(=O)N(C)[C@@H](C)C(=O)N[C@@H]([C@H](OC(=O)[C@@H](NC(C)=O)[C@H](O)C(C)C)C(C)C)C(=O)N(C)[C@@H]([C@@H](C)OC)C(=O)O[C@H](C(C)C)[C@H](NC(C)=O)C(=O)O[C@H](Cc2ccccc2)C(=O)N1C (Ac-[X1][dPhLac][NMeDha]A[NMeA][Leu(3R-O(AcLeu(3R-OH)))][NMeT](Me); ester 1-C)
4,> 100,C=C1C(=O)N[C@@H](C)C(=O)N(C)[C@@H](C)C(=O)N[C@@H]([C@H](OC(=O)[C@@H](NC(=O)c2ccccc2)[C@H](O)C(C)C)C(C)C)C(=O)N(C)[C@@H]([C@@H](C)OC)C(=O)O[C@H](C)[C@H](NC(C)=O)C(=O)O[C@H](Cc2ccccc2)C(=O)N1C
5,> 50,C=C1C(=O)N[C@@H](C)C(=O)N(C)[C@@H](C)C(=O)N[C@@H]([C@H](OC(=O)[C@@H](NC(C)=O)[C@H](O)C(C)C)C(C)C)C(=O)N(C)[C@@H]([C@@H](C)OC)C(=O)OC[C@H](NC(C)=O)C(=O)O[C@H](Cc2ccccc2)C(=O)N1C
6,> 100,CO[C@H](C)[C@H]1C(=O)O[C@H](C)[C@H](NC(C)=O)C(=O)O[C@H](CC(C)C)C(=O)N(C)[C@H](CO)C(=O)N[C@@H](C)C(=O)N(C)[C@@H](C)C(=O)N[C@@H]([C@H](OC(=O)[C@@H](NC(C)=O)[C@H](O)C(C)C)C(C)C)C(=O)N1C

row,SMILES,IC50 [µM]
1,C=C1C(=O)N[C@@H](C)C(=O)N(C)[C@@H](C)C(=O)N[C@@H]([C@H](OC(=O)[C@@H](NC(C)=O)[C@H](O)C(C)C)C(C)C)C(=O)N(C)[C@@H]([C@@H](C)OC)C(=O)O[C@@H](C)[C@H](NC(C)=O)C(=O)O[C@H](Cc2ccccc2)C(=O)N1C,> 50
2,C=C1C(=O)N[C@@H](C)C(=O)N(C)[C@@H](C)C(=O)N[C@@H]([C@H](OC(=O)[C@@H](NC(C)=O)[C@H](O)C(C)C)C(C)C)C(=O)N(C)[C@@H]([C@@H](C)OC)C(=O)O[C@H](C)[C@H](NC(C)=O)C(=O)O[C@H](Cc2ccccc2)C(=O)N1C,> 100
